Data reported in PubChem BioAssay (NCI).
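Growth conditions: 96-well plates. Treatment: test compound, 48 hours, 5 concentrations. Analysis: linear interpolation between bracketing concentrations; unreached endpoints set to highest concentration. TGI denotes the concentration required for complete inhibition of growth.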

Assays:
Test in all cases: NCI-60 cell line screen, 48 h
[1] = tested on: SK-MEL-2 melanoma
[2] = tested on: SNB-19 CNS
[3] = tested on: U251 CNS
[4] = tested on: 786-0 renal
[5] = tested on: UO-31 renal
[6] = tested on: HCT-116 colon
[7] = tested on: TK-10 renal
[8] = tested on: ACHN renal
[9] = tested on: MALME-3M melanoma
[10] = tested on: HOP-18 NSCLC
[11] = tested on: LOX IMVI melanoma
[12] = tested on: COLO 205 colon
[13] = tested on: A498 renal
[14] = tested on: HT29 colon
[15] = tested on: MOLT-4 leukemia
[16] = tested on: IGROV1 ovarian
[17] = tested on: NCI-H460 lung
[18] = tested on: XF 498 CNS
[19] = tested on: UACC-257 melanoma
[20] = tested on: HOP-92 NSCLC
[21] = tested on: SF-268 CNS
[22] = tested on: HCT-15 colon
[23] = tested on: NCI-H522 lung
[24] = tested on: SK-MEL-28 melanoma
[25] = tested on: CAKI-1 renal
[26] = tested on: NCI-H23 lung
[27] = tested on: DLD-1 colon
[28] = tested on: OVCAR-5 ovarian
[29] = tested on: OVCAR-3 ovarian
[30] = tested on: NCI-H226 lung
[31] = tested on: SNB-75 CNS
[32] = tested on: LXFL 529 NSCLC
[33] = tested on: RXF 393 renal
[34] = tested on: M19-MEL melanoma
[35] = tested on: A549 NSCLC
[36] = tested on: SK-MEL-5 melanoma
[37] = tested on: SF-295 CNS
[38] = tested on: M14 melanoma
[39] = tested on: SK-OV-3 ovarian
[40] = tested on: SN12C renal
[41] = tested on: EKVX NSCLC
[42] = tested on: CCRF-CEM leukemia
[43] = tested on: SNB-78 CNS
[44] = tested on: DMS 273 small cell lung
[45] = tested on: HOP-62 NSCLC
[46] = tested on: OVCAR-4 ovarian
[47] = tested on: OVCAR-8 ovarian
[48] = tested on: SR leukemia
[49] = tested on: UACC-62 melanoma
[50] = tested on: SF-539 CNS
[51] = tested on: SW-620 colon
[52] = tested on: K-562 leukemia
[53] = tested on: KM20L2 colon
[54] = tested on: DMS 114 small cell lung
[55] = tested on: HL-60(TB) leukemia
[56] = tested on: HCC-2998 colon
[57] = tested on: KM12 colon
[58] = tested on: RXF-631 renal
[59] = tested on: RPMI-8226 leukemia

For CCOC(=O)CC1(C(=O)OCC)c2[nH]c3ccccc3c2CCN1Cc1ccccc1 (stereo not given), the TGI [1] was 32.8 µM, the TGI [2] was greater than 100 µM and the TGI [3] was 29 µM. The TGI [4] was 31.8 µM, the TGI [5] was 64.1 µM and the TGI [6] was 31.8 µM. It also gave a TGI [7] greater than 100 µM, a TGI [8] of 50.9 µM and a TGI [9] of 37.3 µM. For the same molecule, the TGI [10] was 54.4 µM, the TGI [11] was 32.9 µM and the TGI [12] was 34.3 µM. It also gave a TGI [13] of 35.9 µM, a TGI [14] of 29.8 µM and a TGI [15] of 49.1 µM. For the same molecule, the TGI [16] was 52.9 µM, the TGI [17] was 42.6 µM and the TGI [18] was 41.4 µM. For the same molecule, the TGI [19] was 40.5 µM, the TGI [20] was 32.2 µM and the TGI [21] was 37.7 µM. It also gave a TGI [22] greater than 100 µM, a TGI [23] of 28.1 µM and a TGI [24] of 39.4 µM. For the same molecule, the TGI [25] was 99.2 µM, the TGI [26] was 33 µM and the TGI [27] was 89.4 µM. For the same molecule, the TGI [28] was 39.5 µM, the TGI [29] was 27.4 µM and the TGI [30] was 35.5 µM. It also gave a TGI [31] of 45.8 µM, a TGI [32] greater than 100 µM and a TGI [33] of 32.7 µM. For the same molecule, the TGI [34] was 27.6 µM, the TGI [35] was 40.3 µM and the TGI [36] was 34.6 µM. For the same molecule, the TGI [37] was 32.8 µM, the TGI [38] was 35.8 µM and the TGI [39] was greater than 100 µM. It also gave a TGI [40] of 27.8 µM, a TGI [41] of 50.8 µM and a TGI [42] greater than 100 µM. It also gave a TGI [43] of 81.2 µM, a TGI [44] of 32 µM and a TGI [45] of 33.6 µM. It also gave a TGI [46] of 55.2 µM, a TGI [47] of 78.7 µM and a TGI [48] of 52.6 µM. It also gave a TGI [49] of 32.2 µM, a TGI [50] of 35.8 µM and a TGI [51] greater than 100 µM. It also gave a TGI [52] greater than 100 µM, a TGI [53] of 32.5 µM and a TGI [54] of 38.6 µM. The TGI [55] was 62.5 µM, the TGI [56] was 28.9 µM and the TGI [57] was 40.1 µM.
Cc1cn(C2CC(O)C(CO)O2)c(=O)n2nnnc12 (stereo not given) was tested, and the TGI [1] was greater than 100 µM, the TGI [2] was greater than 100 µM and the TGI [3] was greater than 100 µM. For the same molecule, the TGI [4] was greater than 100 µM, the TGI [5] was greater than 100 µM and the TGI [6] was greater than 100 µM. The TGI [7] was greater than 100 µM, the TGI [9] was greater than 100 µM and the TGI [10] was greater than 100 µM. It also gave a TGI [11] greater than 100 µM, a TGI [12] greater than 100 µM and a TGI [13] greater than 100 µM. The TGI [14] was greater than 100 µM, the TGI [15] was greater than 100 µM and the TGI [16] was greater than 100 µM. For the same molecule, the TGI [17] was greater than 100 µM, the TGI [19] was greater than 100 µM and the TGI [20] was greater than 100 µM. The TGI [21] was greater than 100 µM, the TGI [22] was greater than 100 µM and the TGI [23] was greater than 100 µM. It also gave a TGI [24] greater than 100 µM, a TGI [26] greater than 100 µM and a TGI [27] greater than 100 µM. For the same molecule, the TGI [28] was greater than 100 µM, the TGI [29] was greater than 100 µM and the TGI [30] was greater than 100 µM. It also gave a TGI [58] greater than 100 µM, a TGI [31] greater than 100 µM and a TGI [32] greater than 100 µM. It also gave a TGI [34] greater than 100 µM, a TGI [35] greater than 100 µM and a TGI [36] greater than 100 µM. For the same molecule, the TGI [37] was greater than 100 µM, the TGI [38] was greater than 100 µM and the TGI [39] was greater than 100 µM. The TGI [41] was greater than 100 µM, the TGI [42] was greater than 100 µM and the TGI [43] was greater than 100 µM. It also gave a TGI [44] greater than 100 µM, a TGI [45] greater than 100 µM and a TGI [46] greater than 100 µM. The TGI [47] was greater than 100 µM, the TGI [48] was greater than 100 µM and the TGI [49] was greater than 100 µM. For the same molecule, the TGI [50] was greater than 100 µM, the TGI [51] was greater than 100 µM and the TGI [52] was greater than 100 µM. The TGI [54] was greater than 100 µM, the TGI [55] was greater than 100 µM and the TGI [56] was greater than 100 µM. The TGI [59] was greater than 100 µM and the TGI [57] was greater than 100 µM.
